Laboratory results reported in patent US20240218022A1, “ANTI-VISTA MACROCYCLIC PEPTIDES AND COMPOSITIONS” (BRISTOL-MYERS SQUIBB COMPANY, priority 2022, published 2024).
Positions of bridges follow the written chain, without caps; N, C: chain ends. Non-standard residues stand in square brackets, D forms with d. Residues, ends and D or L forms follow the SMILES beside them. 2Nal = N[C@@H](Cc1ccc2ccccc2c1)C(=O)O; Tic = O=C(O)[C@@H]1Cc2ccccc2CN1; Cit = NC(=O)NCCC[C@H](N)C(=O)O; Ahp(2) = CCCCC[C@H](N)C(=O)O; NMeNle = CCCC[C@H](NC)C(=O)O; NHexGly = CCCCCCNCC(=O)O; Nle = CCCC[C@H](N)C(=O)O

target: T1, mouse VISTA (mVISTA) (Mus musculus, UniProt Q9D659); test: Cell-Based Binding High-Content Assay For mVISTA (HC CBA mVISTA); details: cell-based binding high-content assay, mVISTA; the 16th table; read-out: HC CBA mVISTA IC50
T1 construct: expressed in transfected cells; host or cells: Human embryonic kidney 293T cells
T1 sequence (Q9D659 33-308): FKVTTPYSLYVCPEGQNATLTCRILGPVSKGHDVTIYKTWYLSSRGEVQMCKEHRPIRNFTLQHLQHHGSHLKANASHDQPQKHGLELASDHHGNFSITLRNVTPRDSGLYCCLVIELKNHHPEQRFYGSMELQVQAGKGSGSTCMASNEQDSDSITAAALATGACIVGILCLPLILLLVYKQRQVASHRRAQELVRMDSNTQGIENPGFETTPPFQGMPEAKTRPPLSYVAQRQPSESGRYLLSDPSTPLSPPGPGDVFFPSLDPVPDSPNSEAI
Procedure, shortened: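 Read-out: Alexa 647–streptavidin signal imaged on fixed, Hoechst-stained mVISTA-293T cells, with IC50 taken from a four-parameter logistic curve. Compounds competed with 2 nM biotinylated peptide for 30 min at room temperature, tested under both no-wash and wash (1 h compound, media exchange, 1 h) formats.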

IC50 [nM]	SMILES
31.5	CCCCCCN1CC(=O)N[C@@H](Cc2ccc(O)cc2)C(=O)N[C@@H](CCCC)C(=O)N[C@@H](CC(N)=O)C(=O)N[C@@H](CCCNC(=N)N)C(=O)N2Cc3ccccc3C[C@H]2C(=O)N[C@@H](CCCCC)C(=O)N2CCC[C@H]2C(=O)N[C@@H](C(C)C)C(=O)N[C@@H](CO)C(=O)N[C@H](C(=O)NCC(N)=O)CSCC(=O)N[C@@H](Cc2ccc3ccccc3c2)C(=O)N[C@@H](Cc2ccc(O)cc2)C(=O)N[C@@H](CC(=O)O)C1=O [Ex 1304] ({CH2CO}-[2Nal]YD[NHexGly]Y[Nle]NR[Tic][Ahp(2)]PVSCG-NH2; thioether N-14)
10.3	CCCCCCN1CC(=O)N[C@@H](Cc2ccc(O)cc2)C(=O)N[C@@H](CCCC)C(=O)N[C@@H](CC(N)=O)C(=O)N[C@@H](CCCNC(N)=O)C(=O)N2Cc3ccccc3C[C@H]2C(=O)N[C@@H](CCCCC)C(=O)N2CCC[C@H]2C(=O)N[C@@H](C(C)C)C(=O)N[C@@H](CC(=O)O)C(=O)N[C@H](C(=O)NCC(N)=O)CSCC(=O)N[C@@H](Cc2ccc3ccccc3c2)C(=O)N[C@@H](Cc2ccc(O)cc2)C(=O)N[C@@H](CC(=O)O)C1=O [Ex 1305] ({CH2CO}-[2Nal]YD[NHexGly]Y[Nle]N[Cit][Tic][Ahp(2)]PVDCG-NH2; thioether N-14)
25.2	CCCCCCN1CC(=O)N[C@@H](Cc2ccc(O)cc2)C(=O)N[C@@H](CCCC)C(=O)N[C@@H](CC(N)=O)C(=O)N[C@@H](CCCNC(N)=O)C(=O)N2Cc3ccccc3C[C@H]2C(=O)N[C@@H](CCCCC)C(=O)N2CCC[C@H]2C(=O)N[C@@H](C(C)C)C(=O)N[C@@H](CO)C(=O)N[C@H](C(=O)NCC(N)=O)CSCC(=O)N[C@@H](Cc2ccc3ccccc3c2)C(=O)N[C@@H](Cc2ccc(O)cc2)C(=O)N[C@@H](CC(=O)O)C1=O [Ex 1306] ({CH2CO}-[2Nal]YD[NHexGly]Y[Nle]N[Cit][Tic][Ahp(2)]PVSCG-NH2; thioether N-14)
11.4	CCCCCCN1CC(=O)N[C@@H](Cc2ccc(O)cc2)C(=O)N[C@@H](CCCC)C(=O)N[C@@H](CC(N)=O)C(=O)N[C@@H](CCCNC(=N)N)C(=O)N2Cc3ccccc3C[C@H]2C(=O)N[C@@H](CCCCC)C(=O)N2CCC[C@H]2C(=O)N[C@@H](C(C)C)C(=O)N[C@@H](CC(=O)O)C(=O)N[C@H](C(=O)NCC(N)=O)CSCC(=O)N[C@@H](Cc2ccc3ccccc3c2)C(=O)N[C@@H](Cc2ccc(O)cc2)C(=O)N[C@@H](CC(=O)O)C1=O [Ex 1307] ({CH2CO}-[2Nal]YD[NHexGly]Y[Nle]NR[Tic][Ahp(2)]PVDCG-NH2; thioether N-14)
9.5	CCCCCCN1CC(=O)N[C@@H](Cc2ccc(O)cc2)C(=O)N[C@@H](CCCC)C(=O)N[C@@H](CC(N)=O)C(=O)N[C@@H](CCCNC(=N)N)C(=O)N(C)[C@@H](CCCC)C(=O)N[C@@H](CCCCC)C(=O)N2CCC[C@H]2C(=O)N[C@@H](C(C)C)C(=O)N[C@@H](CC(=O)O)C(=O)N[C@H](C(=O)NCC(=O)O)CSCC(=O)N[C@@H](Cc2ccc3ccccc3c2)C(=O)N[C@@H](Cc2ccc(O)cc2)C(=O)N[C@@H](CC(=O)O)C1=O [Ex 1308] ({CH2CO}-[2Nal]YD[NHexGly]Y[Nle]NR[NMeNle][Ahp(2)]PVDCG-OH; thioether N-14)
5.2	CCCCCCN1CC(=O)N[C@@H](Cc2ccc(O)cc2)C(=O)N[C@@H](C(C)C)C(=O)NCC(=O)N[C@@H](CCCNC(=N)N)C(=O)N[C@@H](CC(C)C)C(=O)N[C@@H](CCCCC)C(=O)N2CCC[C@H]2C(=O)N[C@@H](C(C)C)C(=O)N[C@@H](CC(=O)O)C(=O)N[C@H](C(=O)N[C@@H](CC(C)C)C(N)=O)CSCC(=O)N[C@@H](Cc2ccc3ccccc3c2)C(=O)N[C@@H](Cc2ccc(O)cc2)C(=O)N[C@@H](CC(=O)O)C1=O [Ex 1309] ({CH2CO}-[2Nal]YD[NHexGly]YVGRL[Ahp(2)]PVDCL-NH2; thioether N-14)
3.4	CCCCCCN1CC(=O)N[C@@H](Cc2ccc(O)cc2)C(=O)N[C@@H](C(C)C)C(=O)NCC(=O)N[C@@H](CCCNC(=N)N)C(=O)N[C@@H](CC(C)C)C(=O)N[C@@H](CCCCC)C(=O)N2CCC[C@H]2C(=O)N[C@@H](C(C)C)C(=O)N[C@@H](CC(=O)O)C(=O)N[C@H](C(=O)N[C@@H](CC(N)=O)C(N)=O)CSCC(=O)N[C@@H](Cc2ccc3ccccc3c2)C(=O)N[C@@H](Cc2ccc(O)cc2)C(=O)N[C@@H](CC(=O)O)C1=O [Ex 1310] ({CH2CO}-[2Nal]YD[NHexGly]YVGRL[Ahp(2)]PVDCN-NH2; thioether N-14)
8.3	CCCCCCN1CC(=O)N[C@@H](Cc2ccc(O)cc2)C(=O)N[C@@H](CCCC)C(=O)N[C@@H](CC(N)=O)C(=O)N[C@@H](CCCNC(=N)N)C(=O)N[C@@H](CC(C)C)C(=O)N[C@@H](CCCCC)C(=O)N2CCC[C@H]2C(=O)N[C@@H](C(C)C)C(=O)N[C@@H](CC(=O)O)C(=O)N[C@H](C(=O)N[C@@H](CC(N)=O)C(N)=O)CSCC(=O)N[C@@H](Cc2ccc3ccccc3c2)C(=O)N[C@@H](Cc2ccc(O)cc2)C(=O)N[C@@H](CC(=O)O)C1=O [Ex 1311] ({CH2CO}-[2Nal]YD[NHexGly]Y[Nle]NRL[Ahp(2)]PVDCN-NH2; thioether N-14)
7.7	CCCCCCN1CC(=O)N[C@@H](Cc2ccc(O)cc2)C(=O)N[C@@H](C(C)C)C(=O)NCC(=O)N[C@@H](CCCNC(=N)N)C(=O)N[C@@H](CC(C)C)C(=O)N[C@@H](CCCCC)C(=O)N2CCC[C@H]2C(=O)N[C@@H](C(C)C)C(=O)N[C@@H](CC(=O)O)C(=O)N[C@H](C(=O)N[C@@H](CCCNC(=N)N)C(N)=O)CSCC(=O)N[C@@H](Cc2ccc3ccccc3c2)C(=O)N[C@@H](Cc2ccc(O)cc2)C(=O)N[C@@H](CC(=O)O)C1=O [Ex 1312] ({CH2CO}-[2Nal]YD[NHexGly]YVGRL[Ahp(2)]PVDCR-NH2; thioether N-14)
1.4	CCCCCCN1CC(=O)N[C@@H](Cc2ccc(O)cc2)C(=O)N[C@@H](C(C)C)C(=O)NCC(=O)N[C@@H](CCCNC(=N)N)C(=O)N[C@@H](CC(C)C)C(=O)N[C@@H](CCCCC)C(=O)N2CCC[C@H]2C(=O)N[C@@H](C(C)C)C(=O)N[C@@H](CC(=O)O)C(=O)N[C@H](C(=O)N[C@@H](CO)C(N)=O)CSCC(=O)N[C@@H](Cc2ccc3ccccc3c2)C(=O)N[C@@H](Cc2ccc(O)cc2)C(=O)N[C@@H](CC(=O)O)C1=O [Ex 1314] ({CH2CO}-[2Nal]YD[NHexGly]YVGRL[Ahp(2)]PVDCS-NH2; thioether N-14)
37.1	CCCCCCN1CC(=O)N[C@@H](Cc2ccc(O)cc2)C(=O)N[C@@H](CCCC)C(=O)N[C@@H](CC(N)=O)C(=O)N[C@@H](CCCNC(=N)N)C(=O)N[C@@H](CC(C)C)C(=O)N[C@@H](CCCCC)C(=O)N2CCC[C@H]2C(=O)N[C@@H](C(C)C)C(=O)N[C@@H](CC(=O)O)C(=O)N[C@H](C(=O)N[C@@H](CO)C(N)=O)CSCC(=O)N[C@@H](Cc2ccc3ccccc3c2)C(=O)N[C@@H](Cc2ccc(O)cc2)C(=O)N[C@@H](CC(=O)O)C1=O [Ex 1315] ({CH2CO}-[2Nal]YD[NHexGly]Y[Nle]NRL[Ahp(2)]PVDCS-NH2; thioether N-14)
10.6	CCCCCCN1CC(=O)N[C@@H](Cc2ccc(O)cc2)C(=O)N[C@@H](C(C)C)C(=O)NCC(=O)N[C@@H](CCCNC(N)=O)C(=O)N[C@@H](CC(C)C)C(=O)N[C@@H](CCCCC)C(=O)N2CCC[C@H]2C(=O)N[C@@H](C(C)C)C(=O)N[C@@H](CC(=O)O)C(=O)N[C@H](C(=O)N[C@@H](CO)C(N)=O)CSCC(=O)N[C@@H](Cc2ccc3ccccc3c2)C(=O)N[C@@H](Cc2ccc(O)cc2)C(=O)N[C@@H](CC(=O)O)C1=O [Ex 1316] ({CH2CO}-[2Nal]YD[NHexGly]YVG[Cit]L[Ahp(2)]PVDCS-NH2; thioether N-14)
